In PMC12311865, “In Vitro Evaluation of the Potential Interactions of Zearalenone-14-sulfate and Zearalenone-14-glucuronide with Human Cytochrome P450 Enzymes, Organic Anion Transporting Polypeptides, and ATP-Binding Cassette Multidrug Transporters” (ACS Omega, 2025):

Key:
Format in all cases: biochemical
[1] = molecular target: T1, BCRP (Homo sapiens, UniProt Q9UNQ0); test: BCRP vanadate-sensitive ATPase activity assay; conditions: for effect on BCRP-dependent ATPase activity: up to 50 μM, Z14S effect seen even at 2 μM
T1 construct: made in house; host or cells: Sf9 insect cells (baculovirus)
T1 sequence (Q9UNQ0 1-655): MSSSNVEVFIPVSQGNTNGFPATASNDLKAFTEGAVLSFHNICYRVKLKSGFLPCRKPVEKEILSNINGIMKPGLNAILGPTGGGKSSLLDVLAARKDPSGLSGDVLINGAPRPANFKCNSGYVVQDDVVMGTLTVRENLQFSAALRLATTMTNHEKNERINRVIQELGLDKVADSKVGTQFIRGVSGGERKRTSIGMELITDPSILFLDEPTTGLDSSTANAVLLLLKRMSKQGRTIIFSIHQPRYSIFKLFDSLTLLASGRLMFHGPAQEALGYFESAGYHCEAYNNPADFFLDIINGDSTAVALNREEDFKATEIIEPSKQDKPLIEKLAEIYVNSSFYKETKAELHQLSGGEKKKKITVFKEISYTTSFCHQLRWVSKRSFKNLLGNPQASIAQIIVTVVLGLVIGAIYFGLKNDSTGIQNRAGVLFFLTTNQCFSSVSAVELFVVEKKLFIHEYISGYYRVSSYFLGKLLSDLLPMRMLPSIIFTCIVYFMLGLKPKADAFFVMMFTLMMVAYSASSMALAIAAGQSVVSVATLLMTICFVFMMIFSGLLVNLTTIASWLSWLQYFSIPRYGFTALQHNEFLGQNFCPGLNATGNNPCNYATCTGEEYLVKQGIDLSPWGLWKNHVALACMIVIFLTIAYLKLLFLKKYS
Experimental: (§1) ATPase activity was determined in Sf9 membrane vesicles containing human MDR1 or human BCRP prepared as described. − Appropriate amounts of vesicles (10 μg/50 μL) were used in the assays. Membrane vesicles were incubated with Mg-ATP (3 mM) for 25 min at 37 °C. Effects of the test compounds were examined up to 50 μM concentrations. […] ABC transporter function was determined as vanadate-sensitive ATPase activity. Liberated inorganic phosphate (Pi) was measured by a colorimetric reaction, as it has been reported. After 25 min, absorbance values were determined at 660 nm by a VictorX plate reader (PerkinElmer).

[2] = molecular target: T2, MDR1 (Homo sapiens, UniProt P08183); test: MDR1 vanadate-sensitive ATPase activity assay; conditions: up to 50 μM; Sf9 membrane vesicles
T2 construct: made in house; host or cells: Sf9 insect cells (baculovirus)
Experimental: as §1

[3] = molecular target: T1, BCRP; test: BCRP-mediated LY vesicular transport (Sf9 membrane vesicles); conditions: for inhibition at 10 min, 50 μM: human, read-out: inhibition of BCRP-driven vesicular uptake of LY
Experimental: Experiments were performed in insect membrane vesicles, as described previously. Briefly, human MDR1, BCRP, and MRP2 were expressed in Sf9 insect cells by baculoviruses. On the third day of infection, cells were collected and membrane vesicles were obtained by mechanical disruption and differential centrifugation. To get full activity for BCRP, the cholesterol levels of the vesicles were adjusted to the level of mammalian membranes. Vesicles were stored at −80 °C, and the total protein content of the preparations was measured by the Lowry method (used as a reference for the quantity). Membrane vesicles (50 μg protein/sample) were incubated at 37 °C for 10 min (without or with 4 mM Mg-ATP) in 50 μL volume in the presence of transporter-specific fluorescent substrates: N-methylquinidine (NMQ; 5 μM) for MDR1, lucifer yellow (LY; 10 μM) for BCRP, and 5(6)-carboxy-2′,7′-dichlorofluorescein (CDCF; 5 μM) for MRP2. […] ATP-dependent (4 mM) uptake of fluorescent substrates was examined in the presence of 0–50 μM concentrations of mycotoxins (ZEN, Z14S, or Z14GA). […] After incubation, samples were rapidly filtered and washed on a filter plate (MSFBN6B10; Millipore, Burlington, MA). Accumulated substrates in vesicles were solved back from the filter with 100 μL of SDS (10%) and centrifuged into another plate. A 100 μL volume of fluorescence stabilizer was added to the samples (DMSO for LY, 0.1 M H2SO4 for NMQ, and 0.1 M NaOH for CDCF). Fluorescence of samples was measured by plate readers (Victor X3 and Enspire PerkinElmer; Waltham, MA) at appropriate wavelengths (filters in the Victor X3 reader were 405/535 nm for LY and 492/635 nm for CDCF; while in the Enspire reader, NMQ was measured at 360/430 nm excitation/emission wavelengths). ABC-related transport was calculated by subtracting passive uptake measured without Mg-ATP from values measured in the presence of Mg-ATP.

T2 sequence (P08183 whole entry): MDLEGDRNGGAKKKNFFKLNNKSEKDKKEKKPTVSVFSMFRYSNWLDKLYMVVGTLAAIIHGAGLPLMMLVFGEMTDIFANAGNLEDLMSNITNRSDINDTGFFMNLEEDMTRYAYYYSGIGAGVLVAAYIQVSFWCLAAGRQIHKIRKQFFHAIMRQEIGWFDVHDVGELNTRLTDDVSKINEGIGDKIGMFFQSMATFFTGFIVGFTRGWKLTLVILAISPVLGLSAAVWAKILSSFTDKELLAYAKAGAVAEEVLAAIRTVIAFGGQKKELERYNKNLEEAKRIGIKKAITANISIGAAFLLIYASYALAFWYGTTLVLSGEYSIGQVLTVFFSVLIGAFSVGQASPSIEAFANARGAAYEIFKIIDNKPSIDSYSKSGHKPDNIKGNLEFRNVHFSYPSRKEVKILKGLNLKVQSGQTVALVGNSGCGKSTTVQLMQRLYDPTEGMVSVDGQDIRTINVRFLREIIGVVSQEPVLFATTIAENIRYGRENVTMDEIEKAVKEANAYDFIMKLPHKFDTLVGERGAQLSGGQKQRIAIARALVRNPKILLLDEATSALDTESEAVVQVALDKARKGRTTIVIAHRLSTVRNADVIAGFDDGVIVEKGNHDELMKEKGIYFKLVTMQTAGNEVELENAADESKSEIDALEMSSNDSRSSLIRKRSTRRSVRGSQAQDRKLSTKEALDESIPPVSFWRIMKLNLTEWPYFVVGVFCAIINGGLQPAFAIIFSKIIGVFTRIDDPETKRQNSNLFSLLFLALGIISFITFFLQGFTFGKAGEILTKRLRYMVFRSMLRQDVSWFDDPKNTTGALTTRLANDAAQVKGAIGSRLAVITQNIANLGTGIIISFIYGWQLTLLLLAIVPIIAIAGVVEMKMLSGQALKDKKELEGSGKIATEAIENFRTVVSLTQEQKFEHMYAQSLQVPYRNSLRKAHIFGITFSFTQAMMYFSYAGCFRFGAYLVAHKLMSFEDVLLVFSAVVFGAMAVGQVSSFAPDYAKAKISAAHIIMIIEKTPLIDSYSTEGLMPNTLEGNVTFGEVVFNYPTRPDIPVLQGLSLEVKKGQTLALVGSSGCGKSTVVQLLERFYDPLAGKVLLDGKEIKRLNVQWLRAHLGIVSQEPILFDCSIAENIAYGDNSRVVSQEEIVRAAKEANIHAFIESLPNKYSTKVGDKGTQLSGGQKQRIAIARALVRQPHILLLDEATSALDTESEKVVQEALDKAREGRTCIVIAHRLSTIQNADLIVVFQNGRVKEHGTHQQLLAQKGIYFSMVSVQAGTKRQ

Row | SMILES | effect on BCRP-dependent ATPase activity [1] | effect on MDR1 ATPase activity [2] | IC50 [3] | inhibition at 10 min, 50 μM ([3]; LY 10 μM) | effect on BCRP-driven vesicular uptake of LY ([3]; 0–50 μM, LY 10 μM) | effect on basal ATPase activity of BCRP ([1]; 50 μM)
1 | C[C@H]1CCCC(=O)CCC/C=C/c2cc(OS(=O)(=O)O)cc(O)c2C(=O)O1 [Z14S, zearalenone-14-sulfate] | moderate increase | did not modify | 4.4 µM | > 90% | – | –
2 | C[C@H]1CCCC(=O)CCC/C=C/c2cc(O[C@@H]3O[C@H](C(=O)O)[C@@H](O)[C@H](O)[C@H]3O)cc(O)c2C(=O)O1 [Z14GA, Zearalenone-14-glucuronide] | did not affect | did not modify | – | – | weak inhibitory action | –
3 | C[C@H]1CCCC(=O)CCC/C=C/c2cc(O)cc(O)c2C(=O)O1 [ZEN, Zearalenone] | no relevant impact | considerable elevation even at 5 μM concentration | 2.6 µM | > 90% | – | slight inhibition
